Test results published in US9062028B2, “Bicyclic nitrogen containing heteroaryl TGR5 receptor modulators” (Bristol-Myers Squibb Company, priority 2011, dated 2015).
pEC50: −log10 of the molar value. Where a name gives a salt, the structure may show the parent alone.

Target: T1, recombinant human TGR5 (Homo sapiens, UniProt Q8TDU6)
T1 construct: expressed in transfected cells
T1 sequence (Q8TDU6 1-330): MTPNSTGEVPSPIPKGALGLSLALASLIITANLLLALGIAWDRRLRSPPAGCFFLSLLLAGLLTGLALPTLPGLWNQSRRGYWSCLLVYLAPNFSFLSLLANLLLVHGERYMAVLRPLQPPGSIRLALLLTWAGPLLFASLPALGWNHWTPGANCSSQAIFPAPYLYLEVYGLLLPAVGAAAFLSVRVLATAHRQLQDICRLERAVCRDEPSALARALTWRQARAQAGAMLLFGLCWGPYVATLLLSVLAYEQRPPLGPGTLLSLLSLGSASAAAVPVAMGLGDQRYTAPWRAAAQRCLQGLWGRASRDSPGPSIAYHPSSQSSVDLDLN
Assay: cAMP assay (cAMP accumulation, HTRF) in CHOK1 cells stably expressing TGR5
Format: cell-based
Conditions: CHOK1 cells stably expressing human TGR5, 30 minutes at RT, 1% DMSO
How it was run: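 CHOK1 cells stably expressing TGR5 (text also calls it chimeric human/mouse), 0.4-0.5×10^6 cells/mL in PBS with Ca/Mg and 0.1 mM IBMX, compound 30 min at RT, 1% DMSO. cAMP by HTRF 665/620 interpolated to a standard curve; EC50 from 4-parameter fit as half-maximal increase.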

SMILES | pEC50
Cc1cccc(OCCCC(=O)N2CC3CC3c3c(-c4cnn(Cc5cccc(N)c5)c4)cccc32)c1C (stereo not shown) [Example 69G, 1-(7-(1-(3-Aminobenzyl)-1H-pyrazol-4-yl)-1a,2-dihydro-1H-cyclopropa[c]quinolin-3(7bH)-yl)-4-(2,3-dimethylphenoxy)butan-1-one] | 7.29
Cc1cccc(OCCCC(=O)N2CCCc3c(-c4cccc(COC(=O)N[C@@H](C)CC(=O)O)c4)cccc32)c1C [Example 302, (S)-3-((3-(1-(4-(2,3-Dimethylphenoxy)butanoyl)-l,2,3,4-tetrahydroquinolin-5-yl)benzyloxy)carbonylamino) butanoic acid] | 6.23
Cc1c(Cl)cccc1OCCCC(=O)N1CCCOc2c(-c3cnn(Cc4cccc(C(=O)NCS(=O)(=O)O)c4)c3)cccc21 [Example 146R, (3-((4-(5-(4-(3-Chloro-2-methylphenoxy)butanoyl)-2,3,4,5-tetrahydrobenzo[b][1,4]oxazepin-9-yl)-1H-pyrazol-1-yl)methyl)benzamido) methanesulfonic acid] | 7.31
Cc1cccc(NCCCC(=O)N2CCCc3c(-c4cnn(Cc5cccc(C(=O)O)c5)c4)cccc32)c1C [Example 934, 3-((4-(1-(4-(2,3-Dimethylphenylamino)butanoyl)-1,2,3,4-tetrahydroquinolin-5-yl)-1H-pyrazol-1-yl)methyl)benzoic acid, TFA salt] | 6.72
Cc1cccc(OCCCC(=O)N2CCCc3c(-c4cnn(Cc5c(F)cc(C(=O)NCS(=O)(=O)O)cc5Cl)c4)cccc32)c1C [Example 179, (3-Chloro-4-((4-(1-(4-(2,3-dimethylphenoxy)butanoyl)-1,2,3,4-tetrahydroquinolin-5-yl)-1H-pyrazol-1-yl)methyl)-5-fluorobenzamido)methanesulfonic acid] | 7.35
Cc1cccc(OCCCC(=O)N2CCCc3c(-c4cccc(C(=O)NCC(=O)O)c4)cccc32)c1C [Example 138, 2-(3-(1-(4-(2,3-Dimethylphenoxy)butanoyl)-1,2,3,4-tetrahydroquinolin-5-yl)benzamido)acetic acid] | 5.46
Cc1c(Cl)cccc1Oc1cccc(C(=O)N2CCCOc3c(-c4cnn(Cc5c(F)cc(C(=O)NCCC(=O)O)cc5Cl)c4)cccc32)c1 [Example 815] | 5.70
Cc1c(Cl)cccc1OCCCC(=O)N1CCSc2c(-c3cnn(Cc4cccc(C(=O)NCCO)c4)c3)cccc21 [Example 592, 3-((4-(4-(4-(3-Chloro-2-methylphenoxy)butanoyl)-3,4-dihydro-2H-benzo[b][1,4]thiazin-8-yl)-1H-pyrazol-1-yl)methyl)-N-(2-hydroxyethyl) benzamide] | 7.52
Cc1cccc(OCCCC(=O)N(C)c2cccc(-c3cnn(Cc4cccc(C(=O)NCCC(=O)O)c4)c3)c2)c1C [Example 552, 3-(3-((4-(3-(4-(2,3-Dimethylphenoxy)-N-methylbutanamido)phenyl)-1H-pyrazol-1-yl)methyl)benzamido)propanoic acid] | 5.62
Cc1cccc(OCCCC(=O)N2CCCc3c(-c4cccc(COC(=O)NC(C)CC(=O)O)c4)cccc32)c1C (stereo not shown) [Example 275, 3-((3-(1-(4-(2,3-Dimethylphenoxy)butanoyl)-1,2,3,4-tetrahydroquinolin-5-yl)benzyloxy)carbonylamino) butanoic acid] | 6.22
Cc1c(Cl)cccc1OCCCC(=O)N1CCCc2c(-c3cnn(CC(=O)O)c3)cccc21 [Example 197, 2-(4-(1-(4-(3-Chloro-2-methylphenoxy)butanoyl)-1,2,3,4-tetrahydroquinolin-5-yl)-1H-pyrazol-1-yl)acetic acid] | 5.67
Cc1cccc(OCCCC(=O)N2CC3CC3c3c(-c4cnn(Cc5cc(C(=O)O)ccc5Cl)c4)cccc32)c1C (stereo not shown) [Example 69H, 4-Chloro-3-((4-(3-(4-(2,3-dimethylphenoxy)butanoyl)-1a,2,3,7b-tetrahydro-1H-cyclopropa[c]quinolin-7-yl)-1H-pyrazol-1-yl)methyl)benzoic acid] | 7.28
Cc1cccc(OCCCC(=O)N2CCCc3c(-c4cnn(Cc5cccc(-c6nnn(CC(=O)O)n6)c5)c4)cccc32)c1C [Example 430, 2-(5-(3-((4-(1-(4-(2,3-Dimethylphenoxy)butanoyl)-1,2,3,4-tetrahydroquinolin-5-yl)-1H-pyrazol-1-yl)methyl)phenyl)-2H-tetrazol-2-yl) acetic acid] | 6.71

The next lines start with the values.

pEC50 | SMILES
5.87 | Cc1c(Cl)cccc1OC(C)(C)COC(=O)N1CCCOc2c(-c3cnn(Cc4c(F)cc(C(=O)NCCC(=O)O)cc4Cl)c3)cccc21 [Example 808, 3-(3-Chloro-4-((4-(5-((2-(3-chloro-2-methylphenoxy)-2-methylpropoxy)carbonyl)-2,3,4,5-tetrahydrobenzo[b][1,4]oxazepin-9-yl)-1H-pyrazol-1-yl)methyl)-5-fluorobenzamido)propanoic acid]
7.35 | Cc1cccc(OCCCC(=O)N2CC3CC3c3c(-c4cnn(Cc5c(F)cc(C(=O)NCCC(=O)O)cc5Cl)c4)cccc32)c1C (stereo not shown) [Example 69E, 3-(3-Chloro-4-((4-(3-(4-(2,3-dimethylphenoxy)butanoyl)-1a,2,3,7b-tetrahydro-1H-cyclopropa[c]quinolin-7-yl)-1H-pyrazol-1-yl)methyl)-5-fluorobenzamido)propanoic acid]
7.42 | Cc1c(Cl)cccc1OCCCC(=O)N1CCSc2c(-c3cnn(Cc4c(F)cc(C(=O)NCC(=O)O)cc4Cl)c3)cccc21 [Example 581, 2-(3-Chloro-4-((4-(4-(4-(3-chloro-2-methylphenoxy)butanoyl)-3,4-dihydro-2H-benzo[b][1,4]thaizin-8-yl)-1H-pyrazol-1-yl)methyl)-5-fluorobenzamido)acetic acid]
7.24 | Cc1cccc(OCCCC(=O)N2CC3CC3c3c(-c4cnn(Cc5c(F)cc(C(=O)NCCS(=O)(=O)O)cc5Cl)c4)cccc32)c1C (stereo not shown) [Example 69C, 2-(3-Chloro-4-((4-(3-(4-(2,3-dimethylphenoxy)butanoyl)-1a,2,3,7b-tetrahydro-1H-cyclopropa[c]quinolin-7-yl)-1H-pyrazol-1-yl)methyl)-5-fluorobenzamido)ethanesulfonic acid]
6.75 | Cc1c(Cl)cccc1OCCCC(=O)N1CCSc2c(-c3cnn(Cc4cccc(C(=O)NCCC[C@H](N)C(=O)OC(C)C)c4)c3)cccc21 [Example 635, (S)-Isopropyl 2-amino-5-(3-((4-(4-(4-(3-chloro-2-methylphenoxy)butanoyl)-3,4-dihydro-2H-benzo[b][1,4]thiazin-8-yl)-1H-pyrazol-1-yl)methyl)benzamido)pentanoate, TFA salt]
5.79 | Cc1c(Cl)cccc1OCCCC(=O)N1CCCOc2c(-c3cnn(Cc4cccc(NS(=O)(=O)c5cccc(C(=O)O)c5)c4)c3)cccc21 [Example 506, 3-(N-(3-((4-(5-(4-(3-Chloro-2-methylphenoxy)butanoyl)-2,3,4,5-tetrahydrobenzo [b][1,4]oxazepin-9-yl)-1H-pyrazol-1-yl)methyl)phenyl)sulfamoyl) benzoic acid]
5.86 | Cc1cccc(OCCCC(=O)N2CCOc3c(-c4cnn(Cc5cccc(C(=O)N[C@@H](CC(=O)O)C(=O)O)c5Cl)c4)cccc32)c1C [Example 624, (S)-2-(2-Chloro-3-((4-(4-(4-(2,3-dimethylphenoxy)butanoyl)-3,4-dihydro-2H-benzo[b][1,4]oxazin-8-yl)-1H-pyrazol-1-yl)methyl)benzamido)succinic acid]
6.73 | Cc1c(Cl)cccc1OCCCC(=O)N1CCCOc2c(-c3cnn(Cc4c(F)cc(C(=O)N[C@@H](CCCCN)C(=O)O)cc4Cl)c3)cccc21 [Example 792, (S)-6-Amino-2-(3-chloro-4-((4-(5-(4-(3-chloro-2-methylphenoxy)butanoyl)-2,3,4,5-tetrahydrobenzo[b][1,4]oxazepin-9-yl)-1H-pyrazol-1-yl)methyl)-5-fluorobenzamido)hexanoic acid]
6.74 | Cc1c(Cl)cccc1OCCOC(=O)N1C[C@@H]2C[C@@H]2c2c(-c3cnn(Cc4cccc(NC(=O)NCS(=O)(=O)O)c4)c3)cccc21 [Example 527, (3-(3-((4-((1aR,7bS)-3-((2-(3-Chloro-2-methyl-phenoxy)ethoxy)carbonyl)-1a,2,3,7b-tetrahydro-1H-cyclopropa[c]quinolin-7-yl)-1H-pyrazol-1-yl)methyl)phenyl)ureido) methanesulfonic acid]
6.19 | Cc1cccc(OCCCC(=O)N2CCCc3c(-c4cccc(COC(=O)NCC[C@H](O)C(=O)O)c4)cccc32)c1C [Example 273, (S)-4-((3-(1-(4-(2,3-Dimethylphenoxy)butanoyl)-1,2,3,4-tetrahydroquinolin-5-yl)benzyloxy)carbonylamino)-2-hydroxybutanoic acid]
7.32 | Cc1c(Cl)cccc1OCCCC(=O)N1CCSc2c(-c3cnn(Cc4cccc(C(=O)NCS(=O)(=O)O)c4)c3)cccc21 [Example 565, (3-((4-(4-(4-(3-Chloro-2-methylphenoxy)butanoyl)-3,4-dihydro-2H-benzo[b][1,4]thiazin-8-yl)-1H-pyrazol-1-yl)methyl)benzamido) methanesulfonic acid]
6.71 | Cc1cccc(OCCCC(=O)N2CCCc3c(-c4cnn(Cc5cccc(NC(=O)C(N)C(O)(C(F)(F)F)C(F)(F)F)c5)c4)cccc32)c1C (stereo not shown) [Example 500, 2-Amino-N-(3-((4-(1-(4-(2,3-dimethylphenoxy)butanoyl)-1,2,3,4-tetrahydroquinolin-5-yl)-1H-pyrazol-1-yl)methyl)phenyl)-4,4,4-trifluoro-3-hydroxy-3-(trifluoromethyl) butanamide]
